Test results: ChEMBL document CHEMBL1147399, “Two new sesquiterpene lactones from Ceiba pentandra” (1993)
Converted amounts (≈) assume the structure as drawn.

Assays:
Assay type in all cases: functional
Aspergillus niger = test: Antifungal activity against Aspergillus niger NRRL 530
Klebsiella pneumoniae = test: Antibacterial activity against Klebsiella pneumoniae ATCC 13883
Candida albicans = test: Antifungal activity against Candida albicans ATCC 10231
Staphylococcus aureus = test: Antibacterial activity against Staphylococcus aureus ATCC 6538
Escherichia coli = test: Antibacterial activity against Escherichia coli ATCC 10536
Bacillus subtilis = test: Antibacterial activity against Bacillus subtilis ATCC 6633

| MIC (Aspergillus niger) [µg/mL] | MIC (Klebsiella pneumoniae) [µg/mL] | MIC (Candida albicans) [µg/mL] | MIC (Staphylococcus aureus) [µg/mL] | MIC (Escherichia coli) [µg/mL] | MIC (Bacillus subtilis) [µg/mL] | SMILES |
| --- | --- | --- | --- | --- | --- | --- |
| 200 (≈ 699 µM) | > 1000 | 175 (≈ 611 µM) | 275 (≈ 960 µM) | > 1000 | 250 (≈ 873 µM) | COc1cc(C(C)C)c2cc(C)c(OC)c3c2c1C(=O)O3 |
| 250 (≈ 918 µM) | > 1000 | 225 (≈ 826 µM) | 300 (≈ 1100 µM) | > 1000 | 350 (≈ 1290 µM) | COc1cc(C(C)C)c2cc(C)c(O)c3c2c1C(=O)O3 |
